Values after ≈ are worked out from the molar mass of the structure shown.
Assays:
[1] = Inhibition the IL-6 secretion stimulated at a concentration of 10 ng/ml in osteoblastic MC3T3-E 1 cells.; type: functional; conditions: Mus musculus, MC3T3-E1
[2] = tested on: Mus musculus; experiment: Effect on femoral weight loss in ovariectomized mice at a dose of 0.4 mg/kg/day, ip; type: functional, organism-based
[3] = tested on: Mus musculus; experiment: Effect on femoral weight loss in ovariectomized mice at a dose of 2.0mg/kg/day, ip; type: functional, organism-based

| Compound | IC50 [1] [µg/mL] | Recovery [2] [%] | Recovery [3] [%] |
| --- | --- | --- | --- |
| CCOC(=O)c1sc(NC)nc1-c1ccccc1 | 40 (≈ 152 µM) | – | – |
| Nc1nc(-c2ccccc2)c(C(=O)O)s1 | > 100 | – | – |
| Cc1sc(N)nc1-c1ccc(Cl)cc1 | 10 (≈ 44.5 µM) | 22.8 | 57.8 |
| CNc1sc(N)nc1-c1ccccc1 | 40 (≈ 195 µM) | – | – |
| Cc1sc(N)nc1-c1ccccc1 | 10 (≈ 52.6 µM) | – | – |
| Cc1sc(N)nc1-c1ccc(-c2ccccc2)cc1 | 39 (≈ 146 µM) | – | – |
| COc1ccc(-c2nc(N)sc2C)cc1 | 7 (≈ 31.8 µM) | – | – |
| CCOC(=O)c1sc(-c2ccncc2)nc1-c1ccccc1 | 90 (≈ 290 µM) | – | – |
| CCOC(=O)c1sc(N)nc1-c1ccc(Cl)cc1 | 6 (≈ 21.2 µM) | – | – |
| Cc1sc(N)nc1-c1ccc(Cl)cc1Cl | 8 (≈ 30.9 µM) | – | – |
| CCCNC(=O)c1sc(N)nc1-c1ccccc1 | 40 (≈ 153 µM) | – | – |
| Cc1sc(N)nc1-c1ccc(Cl)c(Cl)c1 | 35 (≈ 135 µM) | – | – |
| Cc1sc(N)nc1-c1ccccc1Cl | 50 (≈ 223 µM) | – | – |
| Cc1sc(N)nc1-c1ccc(C(F)(F)F)cc1 | 3 (≈ 11.6 µM) | – | – |
| Nc1nc(-c2ccc(Cl)cc2)c(C(=O)O)s1 | 20 (≈ 78.5 µM) | 7.1 | 8.6 |
| Cc1ccc(-c2nc(N)sc2C)cc1 | 24 (≈ 117 µM) | – | – |
| Cc1sc(N)nc1-c1ccc(F)cc1 | 27 (≈ 130 µM) | – | – |
| CCOC(=O)c1scnc1-c1ccccc1 | 30 (≈ 129 µM) | – | – |
| CCOC(=O)c1sc(C)nc1-c1ccccc1 | 40 (≈ 162 µM) | – | – |
| Nc1nc(-c2ccccc2)cs1 | 60 (≈ 340 µM) | – | – |
| CCOC(=O)c1sc(NC=O)nc1-c1ccccc1 | > 100 | – | – |
| CCOC(=O)c1sc(N)nc1-c1ccccc1 | 6 (≈ 24.2 µM) | – | – |
| Cc1sc(N)nc1-c1cccc(Cl)c1 | 2.5 (≈ 11.1 µM) | – | – |
| CCc1sc(N)nc1-c1ccccc1 | > 100 | – | – |
| Cc1sc(N)nc1-c1ccc(O)cc1 | 1 (≈ 4.85 µM) | 13.9 | 35.5 |

Source: ChEMBL document CHEMBL1131667, “4-Phenylthiazole derivatives inhibit IL-6 secretion in osteoblastic cells and suppress bone weight loss in ovariectomized mice” (Bioorg Med Chem Lett, 1999)
